pKi: −log10 of the molar value.
Columns and labels:
Assay type in all cases: biochemical
Human recombinant MMP-1 = biological target: T1, Human recombinant MMP-1 (Homo sapiens, UniProt P03956); test: In vitro MMP inhibition assay, MMP-1 (fluorogenic peptide substrate cleavage, Ki); conditions: human MMP-1, full length (FL); read-out: hMMP Ki 01/FL
T1 construct: made in house; host or cells: MMP-1-transfected HT-1080 cells
T1 sequence (P03956 100-469): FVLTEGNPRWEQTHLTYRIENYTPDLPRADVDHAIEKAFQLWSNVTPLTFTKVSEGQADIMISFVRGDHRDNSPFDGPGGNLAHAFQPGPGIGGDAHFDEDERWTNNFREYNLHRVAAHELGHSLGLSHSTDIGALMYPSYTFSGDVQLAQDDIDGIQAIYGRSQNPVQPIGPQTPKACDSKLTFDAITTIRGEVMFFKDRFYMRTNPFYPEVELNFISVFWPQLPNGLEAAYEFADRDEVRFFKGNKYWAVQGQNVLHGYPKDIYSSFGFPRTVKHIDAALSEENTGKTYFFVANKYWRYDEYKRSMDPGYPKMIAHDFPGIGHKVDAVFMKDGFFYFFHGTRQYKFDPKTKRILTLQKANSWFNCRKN
Procedure: (§1) Matrix Metalloproteinase inhibitor compounds were analyzed in in vitro MMP Inhibition assays to determine their ability to inhibit the MMP cleavage of peptide substrates. Inhibition constants (Ki) were calculated from the assayed compound-MMP interactions.
(§2) Human recombinant MMP-1, MMP-2, MMP-3, MMP-7, MMP-9, MMP-12, MMP-13, MMP-14 and MMP-15 were used in these assays. The enzymes are prepared following known laboratory procedures. Protocols for the preparation and use of these enzymes are available in the scientific literature. See, e.g., Enzyme Nomenclature (Academic Press, San Diego, Calif., 1992) and the citations therein. See also Frije et al., J. Biol. Chem., 26(24), 16766-73 (1994).
(§3) The MMP-1 proenzyme may be purified from spent media of MMP-1-transfected HT-1080 cells and the protein purified on a zinc chelating column. The MMP-2 proenzyme may be purified by gelatin Sepharose chromatography from MMP-2-transfected p2AHT2 cells. […]
(§4) The inhibitors are analyzed using a single low enzyme concentration with a single substrate concentration fixed at or below the Km. […] Apparent inhibitory constants are determined by non-linear regression of reaction velocity as a function of inhibitor and enzyme concentration using Morrison's equation, as described by Kuzmic, Anal. Biochem. 286, 45-50 (2000). […]

Human recombinant MMP-9 = biological target: T2, Human recombinant MMP-9 (Homo sapiens, UniProt P14780); test: In vitro MMP inhibition assay, MMP-9 (fluorogenic peptide substrate cleavage, Ki); conditions: human MMP-9, full length (FL); read-out: hMMP Ki 09/FL
T2 construct: made in house; host or cells: MMP-9-transfected HT1080 cells
T2 sequence (P14780 107-707 limits assumed): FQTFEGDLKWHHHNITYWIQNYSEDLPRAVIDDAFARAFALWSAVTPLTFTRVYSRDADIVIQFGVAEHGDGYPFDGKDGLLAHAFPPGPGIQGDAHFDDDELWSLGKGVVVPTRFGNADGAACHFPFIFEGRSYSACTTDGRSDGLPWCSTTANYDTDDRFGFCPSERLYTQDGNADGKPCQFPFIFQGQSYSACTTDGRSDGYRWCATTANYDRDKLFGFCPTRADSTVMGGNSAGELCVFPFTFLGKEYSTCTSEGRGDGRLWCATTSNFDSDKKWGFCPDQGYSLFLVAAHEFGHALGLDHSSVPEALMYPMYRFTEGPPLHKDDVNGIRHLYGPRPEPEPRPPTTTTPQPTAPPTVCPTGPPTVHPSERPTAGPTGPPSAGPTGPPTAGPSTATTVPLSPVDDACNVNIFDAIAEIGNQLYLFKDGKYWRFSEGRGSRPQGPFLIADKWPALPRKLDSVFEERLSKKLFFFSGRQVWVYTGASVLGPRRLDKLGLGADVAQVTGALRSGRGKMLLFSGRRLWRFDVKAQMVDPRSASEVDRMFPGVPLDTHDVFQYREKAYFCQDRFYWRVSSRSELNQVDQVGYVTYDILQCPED
Procedure: as §1, §2, §3, §4

Human recombinant MMP-14 = biological target: T3, Human recombinant MMP-14 (Homo sapiens, UniProt P50281); test: In vitro MMP inhibition assay, MMP-14 catalytic domain (fluorogenic peptide substrate cleavage, Ki); conditions: human MMP-14, catalytic domain (CD); read-out: hMMP Ki 14/CD
T3 construct: The MMP-14 cDNA may be used to express the catalytic domain enzyme in E. coli inclusion bodies; made in house
Procedure: as §1, §2
The MMP-14 cDNA may be used to express the catalytic domain enzyme in E. coli inclusion bodies. Then the enzyme is solubilized in urea, purified on a preparative […] reverse phase HPLC column, and refolded in the presence of zinc acetate and purified for use.
(§5) The fluorogenic, methoxycoumarin-containing polypeptide substrate MCA-ArgProLeuGlyLeuDpaAlaArgGluArgNH2 was used as the MMP substrate in the MMP inhibition assays for human recombinant MMP-1, MMP-2, MMP-7, MMP-9, MMP-12, MMP-13, MMP-14 and MMP-15. Here, “MCA” is 7-methoxycoumarin-4-yl acetyl and “Dpa” is 3-(2,4-dinitrophenyl)-L-2,3-di-aminopropionyl group. In the absence of MMP inhibitory activity, the substrate is cleaved at the Gly-Leu peptide bond. The cleavage separates the highly fluorogenic peptide from the 2,4-dinitrophenyl quencher, resulting in an increase of fluorescent intensity.
(§6) For the human MMP-1, MMP-2, MMP-7, MMP-9, MMP-12, MMP-13, MMP-14 and MMP-15 assays, dilutions of the inhibitors (or salts thereof) were prepared in 100% dimethyl sulfoxide (DMSO). The stock solutions were diluted in Buffer A (100 mM Tris-HCl, 100 mM NaCl, 10 mM CaCl2, 0.005% polyoxyethylene 23 lauryl ether, pH 7.5) to obtain solutions with different compound concentrations, i.e., assay solutions with different concentrations of the assayed MMP inhibitory compound in 1% DMSO. The experiment controls contained the same amount of Buffer A/DMSO as the assayed sample, but contained no inhibitor.
(§7) To determine Ki, the inhibitor samples are incubated at room temperature for 1 hr in the presence of enzyme and then 4 μM of appropriate MMP substrate was added, and samples were analyzed on a Tecan SpectraFlour Plus plate reader. The excitation wavelength is 330 nm, and the emission (fluorescence) wavelength is 420 nm. In the absence of MMP inhibitory activity, the substrate is cleaved at the Gly-Leu bond resulting in an increase of relative fluorescence. Inhibition is observed as a reduced rate of increase in relative fluorescence.
The inhibitors are analyzed using a single low enzyme concentration with a single substrate concentration fixed at or below the Km. This protocol is a modification of method by Knight et al., FEBS Lett., 296(3), 263-266 (1992). Apparent inhibitory constants are determined by non-linear regression of reaction velocity as a function of inhibitor and enzyme concentration using Morrison's equation, as described by Kuzmic, Anal. Biochem. 286, 45-50 (2000). Modifications were made in the non-linear regression method to allow a common control reaction rate and effective enzyme concentration to be shared between all dose-response relationships on a given assay plate. […]

Human recombinant MMP-15 = biological target: T4, Human recombinant MMP-15 (Homo sapiens, UniProt P51511); test: In vitro MMP inhibition assay, MMP-15 catalytic domain (fluorogenic peptide substrate cleavage, Ki); conditions: human MMP-15, catalytic domain (CD); read-out: hMMP Ki 15/CD
T4 construct: The catalytic domain of MMP-12 and MMP-15 enzymes were purchased commercially for these assays; purchased
T4 sequence (P51511 132-304 limits assumed): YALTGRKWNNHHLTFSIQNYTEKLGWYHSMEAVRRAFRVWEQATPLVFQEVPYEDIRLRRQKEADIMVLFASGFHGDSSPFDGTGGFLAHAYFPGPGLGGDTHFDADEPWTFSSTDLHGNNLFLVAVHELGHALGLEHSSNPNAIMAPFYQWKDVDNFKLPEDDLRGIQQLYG
Procedure: as §1, §2
The catalytic domain of MMP-12 and MMP-15 enzymes were purchased commercially for these assays.
as §5, §6, §7
The inhibitors are analyzed using a single low enzyme concentration with a single substrate concentration fixed at or below the Km. This protocol is a modification of method by Knight et al., FEBS Lett., 296(3), 263-266 (1992). Apparent inhibitory constants are determined by non-linear regression of reaction velocity as a function of inhibitor and enzyme concentration using Morrison's equation, as described by Kuzmic, Anal. Biochem. 286, 45-50 (2000). Modifications were made in the non-linear regression method to allow a common control reaction rate and effective enzyme concentration to be shared between all dose-response relationships on a given assay plate. Since the substrate concentration was chosen to be at or below the Km, the apparent Ki's from this analysis were reported as Ki's without correction for the influence of substrate.

Measured: pKi

COc1cccc(CNC(=O)c2nc3ccc(F)c(OCCC4CCN(C(=O)CO)CC4)c3c(=O)[nH]2)c1 [Example 34, 6-fluoro-5-[2-(1-glycoloylpiperidin-4-yl)ethoxy]-N-(3-methoxybenzyl)-4-oxo-3,4-dihydroquinazoline-2-carboxamide]
< 5.00: all assays above
